Values of other authors, collected in patent US20100247552A1, “PAK MODULATORS” (MASSACHUSETTS INSTITUTE OF TECHNOLOGY, priority 2006, published 2010).

Tests used:
PAK5 [1] = biological target: T1, PAK5 (Homo sapiens, UniProt Q9P286); conditions: 10 μM compound
PAK6 [2] = biological target: T2, PAK6 (Homo sapiens, UniProt Q9NQU5)
PAK5 [3] = biological target: T1, PAK5
PAK6 [4] = biological target: T2, PAK6; conditions: 10 μM compound
PAK4 [5] = biological target: T3, PAK4 (Homo sapiens, UniProt O96013); conditions: 10 μM compound
PAK4 [6] = biological target: T3, PAK4
[7] = solvents
[8] = system: human cancer cell migration; conditions: 40 μM; interferes with formation of active Cdc42/Rac1 and PAK complex
PAK = conditions: probably competitive inhibition of ATP binding; units printed within the value (nM and μM); read-out: IC50 for inhibition of PAK kinase activity

T1 sequence (Q9P286 whole entry): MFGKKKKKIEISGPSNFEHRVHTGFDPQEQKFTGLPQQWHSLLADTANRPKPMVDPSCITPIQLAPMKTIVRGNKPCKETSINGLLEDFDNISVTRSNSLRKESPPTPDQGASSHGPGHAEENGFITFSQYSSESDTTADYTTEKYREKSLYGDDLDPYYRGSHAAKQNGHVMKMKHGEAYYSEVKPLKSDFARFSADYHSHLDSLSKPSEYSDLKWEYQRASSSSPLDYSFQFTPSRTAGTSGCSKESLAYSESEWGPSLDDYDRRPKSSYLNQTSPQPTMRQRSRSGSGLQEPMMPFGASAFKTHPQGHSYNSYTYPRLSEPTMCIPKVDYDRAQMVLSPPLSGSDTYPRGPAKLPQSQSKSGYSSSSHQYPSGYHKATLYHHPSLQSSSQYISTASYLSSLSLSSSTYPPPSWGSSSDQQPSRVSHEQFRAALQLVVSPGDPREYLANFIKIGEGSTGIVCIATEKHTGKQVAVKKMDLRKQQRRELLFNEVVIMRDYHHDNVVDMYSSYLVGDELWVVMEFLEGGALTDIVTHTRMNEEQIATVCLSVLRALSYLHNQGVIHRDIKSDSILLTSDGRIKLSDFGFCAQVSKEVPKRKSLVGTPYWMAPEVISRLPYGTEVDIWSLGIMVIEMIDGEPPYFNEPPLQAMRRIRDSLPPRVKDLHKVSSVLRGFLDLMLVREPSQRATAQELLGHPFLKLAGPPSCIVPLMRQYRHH
T2 sequence (Q9NQU5 whole entry): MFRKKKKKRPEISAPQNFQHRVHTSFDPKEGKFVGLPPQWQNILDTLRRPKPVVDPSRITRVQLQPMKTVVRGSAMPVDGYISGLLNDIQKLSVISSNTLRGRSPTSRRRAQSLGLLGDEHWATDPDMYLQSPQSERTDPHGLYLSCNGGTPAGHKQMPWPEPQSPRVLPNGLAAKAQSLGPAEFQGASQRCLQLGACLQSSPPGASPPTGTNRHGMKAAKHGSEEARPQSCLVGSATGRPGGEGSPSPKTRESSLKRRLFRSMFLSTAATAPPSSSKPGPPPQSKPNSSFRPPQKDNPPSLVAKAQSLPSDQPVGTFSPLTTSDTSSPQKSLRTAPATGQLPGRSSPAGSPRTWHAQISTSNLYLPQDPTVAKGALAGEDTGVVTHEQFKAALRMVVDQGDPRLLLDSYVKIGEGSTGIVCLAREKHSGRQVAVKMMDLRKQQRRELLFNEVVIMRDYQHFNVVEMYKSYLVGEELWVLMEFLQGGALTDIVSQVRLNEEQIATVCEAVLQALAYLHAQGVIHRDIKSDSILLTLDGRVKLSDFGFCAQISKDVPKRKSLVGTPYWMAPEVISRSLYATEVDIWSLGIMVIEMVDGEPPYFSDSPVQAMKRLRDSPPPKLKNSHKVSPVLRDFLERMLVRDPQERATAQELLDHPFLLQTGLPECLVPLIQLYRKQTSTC
T3 sequence (O96013 291-591 limits assumed): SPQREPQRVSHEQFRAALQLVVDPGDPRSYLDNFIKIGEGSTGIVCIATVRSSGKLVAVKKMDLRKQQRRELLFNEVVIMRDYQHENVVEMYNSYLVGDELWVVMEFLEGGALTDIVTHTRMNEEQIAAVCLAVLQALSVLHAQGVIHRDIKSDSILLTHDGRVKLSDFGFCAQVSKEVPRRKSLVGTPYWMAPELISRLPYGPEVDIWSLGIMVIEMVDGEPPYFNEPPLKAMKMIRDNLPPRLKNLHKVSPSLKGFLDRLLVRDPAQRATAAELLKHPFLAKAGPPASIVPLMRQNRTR

Compound | % Activity at 10 μM PAK5 (PAK5 [1]) | Tm Shift PAK6 (PAK6 [2]) | Tm Shift PAK5 (PAK5 [3]) | % Activity at 10 μM PAK6 (PAK6 [4]) | % Activity at 10 μM PAK4 (PAK4 [5]) | Tm Shift PAK4 (PAK4 [6]) | Solubility [7] | Effect on human cancer cell migration [8] | IC50 (PAK)
Nc1nc(Nc2ccc(S(N)(=O)=O)cc2)nn1C(=S)Nc1c(F)cccc1F [Cdk 1/2 Inhibitor III] | 7.0% | 5.6 ± 0.8 °C | 5.6 ± 0.3 °C | 18% | 62% | 6.5 ± 0.2 °C | – | – | –
CCn1cnc2c(Nc3cccc(Cl)c3)nc(NC3CCCCC3N)nc21 (stereo not drawn) [Cdkl Inhibitor] | 12% | 7.0 ± 0.3 °C | 7.1 ± 0.3 °C | 23% | 56% | 7.0 ± 1.5 °C | – | – | –
Cc1cc(O)c2c(c1)C(=O)c1cc(O)cc(O)c1C2=O [Emodin, 1,3,8-Tri-hydroxy-6-methyl-anthra-quinone] | – | – | – | – | – | – | soluble in DMSO, ethanol, or 1 N dilute aqueous ammonia | inhibits human cancer cell migration | –
C[C@]12OC(C[C@]1(O)C(=O)O)n1c3ccccc3c3c4c(c5c6ccccc6n2c5c31)CNC4=O [K252a] | 22% | 8.6 ± 1.0 °C | 5.9 ± 0.3 °C | 16% | 16% | 4.5 ± 0.3 °C | – | – | –
NCC(=O)Nc1ccc(-n2nc(C(F)(F)F)cc2-c2ccc3c(ccc4ccccc43)c2)cc1 [OSU-03012, 2-amino-N-{4-[5-(2-phenanthrenyl)-3-(trifluoromethyl)-1H-pyrazol-1-yl]-phenyl}acetamide] | – | – | – | – | – | – | soluble in organic solvents such as DMSO, ethanol, and DMF | – | 500 to 1000 nM
CCN(CC)CCNC(=O)c1c(C)[nH]c(/C=C2\C(=O)Nc3ccc(Cl)cc32)c1C [SU11652] | 43% | 5.3 ± 0.3 °C | 5.3 ± 0.2 °C | 75% | 34% | 6.4 ± 1.2 °C | – | – | –
CN[C@@H]1C[C@H]2O[C@@](C)([C@@H]1OC)n1c3ccccc3c3c4c(c5c6ccccc6n2c5c31)C(=O)NC4 [Staurosporine] | 0% | – | – | 0% | – | – | – | – | –
